Test results published in publication PMC9571290, “Preliminary Structure–Activity Relationship Study of the MMV Pathogen Box Compound MMV675968 (2,4-Diaminoquinazoline) Unveils Novel Inhibitors of Trypanosoma brucei brucei” (Molecules, 2022).
Like-named read-outs stand apart in the source and are kept apart here.

Assays:
[1] = in vitro; conditions: African green monkey
[2] = test system: trypanosome plasma membrane; experiment: plasma membrane integrity (SYBR Green); type: cell-based, Trypanosoma brucei brucei; conditions: IC99, IC90, IC50, IC10; up to 120 min
Method: The plasma membrane is the first barrier protecting the cell from the external environment and therefore might represent an important challenge for compounds to exert their inhibitory action. Thus, compounds 7 and 10 were assessed for their ability to induce alterations in cell integrity as previously described with a modification consisting of using an SYBR green assay. The principle of this assay is based on the fact that upon treatment with membrane disruptors, trypanosomes with compromised plasma become fluorescent as a result of SYBR green entry and fixation to the exposed DNA. Practically, in a 96-well microtiter plate, 90 µL of trypanosome suspension (2 × 10^6 cells/mL/well) was preincubated with SYBR Green (2X) (Sigma Aldrich) for 15 min at 37 °C and 5% CO2 in darkness. […] The plate was then incubated at 37 °C on a Magelan Infinite M200 multiwell plate reader (Tecan), and fluorescence was further recorded every 5 min for up to 120 min at λex = 485 and λem = 538 nm. […] The results are expressed as the mean ± SD of two experiments carried out in duplicate after deducting the background signal (wells containing HMI-9 medium) and then used to plot the fluorescence counts versus time (min) graph.

[3] = test system: bloodstream forms of Trypanosoma brucei brucei; experiment: resazurin-based antitrypanosomal inhibition assay; type: cell-based; conditions: Trypanosoma brucei
[4] = test system: bloodstream forms of Trypanosoma brucei brucei; experiment: cellular DNA fragmentation ELISA (apoptosis or cytolysis); type: cell-based; conditions: 4 h; for apoptotic DNA fragmentation: lysate, at IC50
Method: Basically, this assay tends to quantify apoptotic cell death by detection of […] dye-labeled DNA fragments in the cytoplasm of affected cells or to measure cell-mediated cytotoxicity by detection of dye-labeled DNA fragments released from damaged cells into the culture supernatant. […] BrdU-labeled parasites were harvested (by spinning at 2500 rpm for 7 min) followed by centrifugal washing using BrdU-free HMI-9 medium. […] The plate was then centrifuged at […] for 7 min, and the pellets were collected and kept at 4 °C until further use. For cytolysis measurement, the supernatants were added to a microplate coated with anti-DNA antibody to allow DNA capture from the test samples. The captured DNA fragments were subsequently denatured using microwave irradiation (LG NeoChef Charcoal Healthy Ovens) at 500 W for 5 min to separate DNA strands in view of displaying the BrdU. Thereafter, an anti-BrdU-antibody-POD (peroxidase) conjugate was added to detect the BrdU contained in the captured DNA fragments.
For apoptosis measurement, the cell pellets from each well were resuspended in 200 µL of the kit’s incubation buffer and incubated for 30 min. The lysed cells were centrifuged at […] for 10 min, and the supernatants were used as described above. Triton X-100 (Sigma Aldrich) was used as a positive control for both apoptosis and cell-mediated cytotoxicity. The absorbance values were proportionally correlated to the amount of DNA fragments in the treated cultures. Data are expressed as the mean ± SD of two independent experiments performed in duplicate and compared to the negative control (untreated parasites) at a significance level of p < 0.05.

[5] = test system: bloodstream form of Trypanosoma brucei brucei; experiment: parasite-killing kinetics and cidal or static effect; type: cell-based; conditions: for cidal or static effect after inhibitor removal: IC90 and IC99, removal at 4 h (10) or 24 h (7), subculture in inhibitor-free medium; for time to total inhibition of trypanosome growth: at IC99
Method: Thus, they were selected, and their effect at various concentrations was assessed on the proliferation rate of the bloodstream form of Trypanosoma brucei brucei using microscopic cell count. […] After specified exposure time intervals (0, 4, 8, 12, 24, 30, 36, 48, 60, 72 h), the content of each well was harvested and counted on a Neubauer hemacytometer to determine the number of mobile parasites. The obtained values were used to plot the growth curves as parasite density (cells/mL) versus incubation time using GraphPad Prism 8.0 software.
Therefore, the ability of parasites to recover post exposure to inhibitors 10 and 7 was further evaluated. […] After that, the cells were washed three times with fresh complete medium by centrifugation at 2500 rpm for 7 min. Cell pellets were thereafter resuspended in fresh complete culture medium in a 24-well plate and subcultured under the same conditions for 68 h for compound 10 and 48 h for compound 7 to achieve the complete parasite growth pattern. Thereafter, cells were enumerated using the Neubauer cell counter at each time point. The assay was performed in duplicate, and the mean cell counts were plotted […] against time using GraphPad Prism 8.0 to assess the cidal or static effect of inhibitors.

[6] = Table 4, analogs of MMV675968, solid material, read-out: IC50 ± SD T. b. b.
[7] = Table 4, negative log of IC50 in molar, read-out: pIC50 T. b. b. (converted)

| Compound | CC50 at 48 h [1] | effect on plasma membrane permeability [2] | IC50 [3, 6] | IC50 [3, 7] | induction of cell lysis (cytolysis) ([4]; culture supernatant) | apoptotic DNA fragmentation [4] | cidal or static effect after inhibitor removal [5] | time to total inhibition of trypanosome growth [5] |
| --- | --- | --- | --- | --- | --- | --- | --- | --- |
| COc1ccccc1NCc1ccc2nc(N)nc(N)c2c1 [Analog 7, 6-(((2-methoxyphenyl)amino)methyl)quinazoline-2,4-diamine] | 24800 ± 870 nM | no impairment or a rather mild effect | 60 ± 8 nM | 60.3 nM | did not exert any effect | did not exert any effect | static effect | ≤ 24 h |
| Nc1nc(N)c2cc(CNc3cc(Cl)ccc3Cl)ccc2n1 [Analog 10, 6-(((2,5-dichlorophenyl)amino)methyl)quinazoline-2,4-diamine] | 78200 ± 800 nM | no impairment or a rather mild effect | 45 ± 5 nM | 45.7 nM | – | significant inducing effect | cidal effect | ≤ 4 h |
